Results taken from patent publication US7863465B2, “Antifungal agents” (Merck Sharp & Dohme Corp., priority 2006, dated 2011).

Target: T1, glucan synthase (GS) prepared from Candida albicans MY1055 (Candida albicans, UniProt O13428)
T1 construct: Extraction of GS activity from membranes was performed at a protein concentration of 5 mg/mL in extraction buffer; endogenous in cells; host or cells: Candida albicans MY1055 (membranes, detergent extract, product entrapment)
Assay: Glucan synthase inhibition (polymerization assay, 96-well, 3H-UDPG incorporation)
Assay type: biochemical
Conditions: glucan synthase from C. albicans MY1055
Experimental: The in vitro evaluation of glucan synthase inhibitory activity of compounds was measured in a polymerization assay in 96-well format. Each well contained 100 μL of ^3H-UDPG at 0.5 mM (6000 to 8000 dpm/nmol), 50 mM HEPES pH 7.5 (Sigma), 10% w/v glycerol (Sigma), 1.5 mg/mL bovine serum albumin (Sigma A 9647. Lot 44H0190), 25 mM KF (Fisher), 1 mM EDTA (Gibco Ultrapure), 25 μM GTP-γ-S, enzyme sufficient to give 3 to 6 nmoles incorporation during the 60 min incubation at 22° C., and test compound added from wells in 3-fold serial dilutions in 100% DMSO (1 μL/well). The reaction was stopped by the addition of 100 μL of 20% trichloroacetic acid. Plates were chilled for a minimum of 10 min, and precipitated glucan collected by filtration on GF/C plates (Packard Unifilter®-96), washed with 5 cycles of water (about 1 mL/well each cycle) using a Packard Filtermate Harvester. 40 μL/well scintillation fluid (Packard Ultima Gold TM-XR) was added and the sealed plates counted in a Wallac Beta counter in top-counting mode at an efficiency of approximately 40%.
Stock solutions were stored at 10 mg/mL in DMSO at −20° C. For each new enzyme preparation, the initial titration performed started at 1 mg/mL, which was prepared by making a 10-fold dilution in DMSO (5 μL to 50 μL). 40 μL of this stock was placed in column 12 of a round-bottomed 96-well microtiter plate. 40 μL DMSO was added to columns 1 to 11 in the same row and ten 3-fold serial dilutions performed, by transferring 20 μL from column 12 to column 11 etc., with 4 mixings before each transfer. No test compound was transferred to from column 2 to column 1. Duplicate aliquots of 1 μL of all 12 dilutions were then transferred to the side walls of a 96-well Bioblock 1.1 mL plate (Fisherbrand) to create two rows.
The results were tabulated and a standard plate background was subtracted and the net count transpose-pasted into a Prism file, with final compound concentrations used in ng/mL. Graphs were created in Prism software, using the average of two determinations, and using Prism's curve fitting program (sigmoidal dose response non-linear regression).
Routine analysis was performed with glucan synthase (GS) prepared from Candida albicans MY1055 by the following procedure: MY1055 was grown in 10 liters YPD medium (10 g yeast extract, 20 g tryptone, 20 g glucose per liter) with vigorous shaking at 30° C., to early stationary phase. Cells were harvested by centrifugation, the pellet was washed and frozen at −70° C. until breakage. Thawed pellets were shaken with an equal volume of breakage buffer (50 mM HEPES pH 7.4, 10% glycerol, 1 mM EDTA, 1 mM PMSF, 1 mM DTT) and 4 times their weight of 0.5 mm acid washed glass beads for 2 hours at 4° C. Extent of breakage was assessed visually at 40× magnification. For C. parapsilosis strains, shaking was extended to 3 hours to maximize breakage. After low speed centrifugation to remove cell debris, the supernatant was centrifuged at 100,000×g for 60 min. to separate membranes plus ribosomes from cytoplasmic components. Membranes were further washed two additional times with breakage buffer using the same centrifugation conditions and finally suspended in breakage buffer at 25 to 30 mg/mL protein (Biorad) for storage at −70° C. Extraction of GS activity from membranes was performed at a protein concentration of 5 mg/mL in extraction buffer (50 mM NaPO4 pH 7.5, 0.1 M KCl, 0.1M Na citrate, 20% glycerol, 5 μM GTP-γ-S, 1 mM DTT, 1 mM PMSF, 3 μg/mL pepstatin) plus 0.25% W1 by gentle mixing at 4° C. for 60 min, followed by centrifugation at 100,000×g for 60 min. After centrifugation, clear supernatant was removed from a pellet consisting of a hard layer usually with small amounts of gelatinous unextracted membranes above it. […]

T1 sequence (O13428 1-1897): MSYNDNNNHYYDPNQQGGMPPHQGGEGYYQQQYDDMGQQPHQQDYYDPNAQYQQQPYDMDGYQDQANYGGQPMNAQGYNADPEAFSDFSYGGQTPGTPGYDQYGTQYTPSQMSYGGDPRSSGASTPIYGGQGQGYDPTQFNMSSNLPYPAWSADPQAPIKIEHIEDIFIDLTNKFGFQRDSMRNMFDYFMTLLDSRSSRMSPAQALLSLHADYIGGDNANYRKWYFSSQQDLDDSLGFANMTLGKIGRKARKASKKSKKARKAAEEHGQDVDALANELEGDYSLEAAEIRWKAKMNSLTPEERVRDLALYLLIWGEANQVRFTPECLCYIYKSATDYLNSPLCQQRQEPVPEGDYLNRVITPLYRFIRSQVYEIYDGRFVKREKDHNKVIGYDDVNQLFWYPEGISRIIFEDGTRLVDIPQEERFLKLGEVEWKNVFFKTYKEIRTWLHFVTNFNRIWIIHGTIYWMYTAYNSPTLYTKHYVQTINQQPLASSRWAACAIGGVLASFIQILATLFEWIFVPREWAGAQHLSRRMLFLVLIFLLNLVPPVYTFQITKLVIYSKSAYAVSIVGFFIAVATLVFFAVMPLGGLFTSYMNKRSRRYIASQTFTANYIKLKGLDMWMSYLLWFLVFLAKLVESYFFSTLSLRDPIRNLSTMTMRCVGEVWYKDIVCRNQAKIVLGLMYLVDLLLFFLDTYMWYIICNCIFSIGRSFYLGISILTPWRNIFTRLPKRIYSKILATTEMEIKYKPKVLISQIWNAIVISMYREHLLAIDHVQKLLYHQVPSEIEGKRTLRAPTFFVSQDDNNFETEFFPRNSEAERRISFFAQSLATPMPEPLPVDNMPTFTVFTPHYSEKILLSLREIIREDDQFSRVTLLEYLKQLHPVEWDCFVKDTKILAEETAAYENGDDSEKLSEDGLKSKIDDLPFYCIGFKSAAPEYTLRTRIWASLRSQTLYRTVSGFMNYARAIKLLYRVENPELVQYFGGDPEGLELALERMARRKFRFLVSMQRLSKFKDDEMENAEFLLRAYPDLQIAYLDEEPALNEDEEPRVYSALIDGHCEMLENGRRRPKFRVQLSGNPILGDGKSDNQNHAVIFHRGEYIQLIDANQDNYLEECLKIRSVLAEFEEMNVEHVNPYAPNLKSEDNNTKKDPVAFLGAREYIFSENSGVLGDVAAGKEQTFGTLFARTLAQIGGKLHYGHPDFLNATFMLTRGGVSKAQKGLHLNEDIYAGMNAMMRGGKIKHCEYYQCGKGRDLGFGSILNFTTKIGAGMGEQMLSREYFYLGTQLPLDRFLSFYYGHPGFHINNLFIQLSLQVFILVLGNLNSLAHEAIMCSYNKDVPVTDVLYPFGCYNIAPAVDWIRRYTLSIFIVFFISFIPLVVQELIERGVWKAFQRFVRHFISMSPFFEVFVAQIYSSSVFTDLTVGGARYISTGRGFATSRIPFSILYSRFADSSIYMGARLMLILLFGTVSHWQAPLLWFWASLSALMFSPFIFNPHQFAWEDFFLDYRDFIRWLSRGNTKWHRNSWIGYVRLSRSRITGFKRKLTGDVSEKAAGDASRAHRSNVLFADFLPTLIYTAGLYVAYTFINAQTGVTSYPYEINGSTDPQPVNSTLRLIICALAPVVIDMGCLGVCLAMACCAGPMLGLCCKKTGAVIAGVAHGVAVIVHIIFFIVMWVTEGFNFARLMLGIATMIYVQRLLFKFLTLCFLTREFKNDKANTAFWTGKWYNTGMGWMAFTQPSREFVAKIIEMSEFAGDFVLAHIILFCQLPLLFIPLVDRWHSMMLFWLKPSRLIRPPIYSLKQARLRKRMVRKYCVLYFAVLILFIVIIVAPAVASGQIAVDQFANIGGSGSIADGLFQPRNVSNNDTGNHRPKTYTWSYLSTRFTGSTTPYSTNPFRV
T1 sequence (O42825 whole entry partner): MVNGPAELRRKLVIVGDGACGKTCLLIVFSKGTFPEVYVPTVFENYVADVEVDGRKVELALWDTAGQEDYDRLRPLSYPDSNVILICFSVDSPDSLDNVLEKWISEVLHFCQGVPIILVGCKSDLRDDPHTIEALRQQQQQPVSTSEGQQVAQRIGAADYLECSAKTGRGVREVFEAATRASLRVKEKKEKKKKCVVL

Compound | IC50 [µM]
CC(=O)O[C@@H]1C[C@@]23COC[C@](C)([C@@H]2CC[C@H]2C3=CC[C@@]3(C)[C@H](C(=O)O)[C@@](C)([C@H](C)C(C)C)CC[C@]23C)[C@H]1OCCNC(=O)C(N)CN (stereo partly drawn) [Example 5, (1S,2R,3R,4aR,6aS,7R,8R,10aR,10bR,12aR)-3-(acetyloxy)-2-[2-(2,3-diaminopropionylamino)-ethoxy]-8-[(1R)-1,2-dimethylpropyl]-1,6a,8,10a-tetramethyl-1,3,4,6,6a,7,8,9,10,10a,10b,11,12,12a-tetradecahydro-2H-1,4a-(methanooxymethano)chrysene-7-carboxylic acid] | 0.126
CC(=O)O[C@@H]1C[C@@]23COC[C@](C)([C@@H]2CC[C@H]2C3=CC[C@@]3(C)[C@H](C(=O)O)[C@@](C)([C@H](C)C(C)C)CC[C@]23C)[C@H]1OCCNCCCN [Example 8, (1S,2R,3R,4aR,6aS,7R,8R,10aR,10bR,12aR)-3-(acetyloxy)-2-[2-(3-aminopropylamino)-ethoxy]-8-[(1R)-1,2-dimethylpropyl]-1,6a,8,10a-tetramethyl-1,3,4,6,6a,7,8,9,10,10a,10b,11,12,12a-tetradecahydro-2H-1,4a-(methanooxymethano)chrysene-7-carboxylic acid] | 0.0254
CC(=O)O[C@@H]1C[C@@]23COC[C@](C)(C2CC[C@H]2C3=CC[C@@]3(C)[C@H](C(=O)O)[C@@](C)([C@H](C)C(C)C)CC[C@]23C)[C@H]1OCCNC[C@@H](N)CCCCN (stereo partly drawn) [Example 21, (1S,2R,3R,4aR,6aS,7R,8R,10aR,10bR,12aR)-3-(acetyloxy)-2-[2-((S)-2,6-diaminohexylamino)-ethoxy]-8-[(1R)-1,2-dimethylpropyl]-1,6a,8,10a-tetramethyl-1,3,4,6,6a,7,8,9,10,10a,10b,11,12,12a-tetradecahydro-2H-1,4a-(methanooxymethano)chrysene-7-carboxylic acid] | 0.0596
CC(=O)O[C@@H]1C[C@@]23COC[C@](C)(C2CC[C@H]2C3=CC[C@@]3(C)[C@H](C(=O)O)[C@@](C)([C@H](C)C(C)C)CC[C@]23C)[C@H]1OCCNC(=N)NC(C)(C)C (stereo partly drawn) [Example 24, (1S,2R,3R,4aR,6aS,7R,8R,10aR,10bR,12aR)-3-(acetyloxy)-2-[2-(N′-tert-butylguanidino)-ethoxy]-8-[(1R)-1,2-dimethylpropyl]-1,6a,8,10a-tetramethyl-1,3,4,6,6a,7,8,9,10,10a,10b,11,12,12a-tetradecahydro-2H-1,4a-(methanooxymethano)chrysene-7-carboxylic acid] | 0.0327
CC(=O)O[C@@H]1C[C@@]23COC[C@](C)(C2CC[C@H]2C3=CC[C@@]3(C)[C@H](C(=O)O)[C@@](C)([C@H](C)C(C)C)CC[C@]23C)[C@H]1OCCCCN (stereo partly drawn) [Example 40, (1S,2R,3R,4aR,6aS,7R,8R,10aR,10bR,12aR)-3-(acetyloxy)-2-(4-aminobutoxy)-8-[(1R)-1,2-dimethylpropyl]-1,6a,8,10a-tetramethyl-1,3,4,6,6a,7,8,9,10,10a,10b,11,12,12a-tetradecahydro-2H-1,4a-(methanooxymethano)chrysene-7-carboxylic acid] | 0.0515
CC(=O)O[C@@H]1C[C@@]23COC[C@](C)([C@@H]2CC[C@H]2C3=CC[C@@]3(C)[C@H](C(=O)O)[C@@](C)([C@H](C)C(C)C)CC[C@]23C)[C@H]1OCC(O)(CO)CO [Example 44, (1S,2R,3R,4aR,6aS,7R,8R,10aR,10bR,12aR)-3-(acetyloxy)-2-(2,3-dihydroxy-2-hydroxymethylpropoxy)-8-[(1R)-1,2-dimethylpropyl]-1,6a,8,10a-tetramethyl-1,3,4,6,6a,7,8,9,10,10a,10b,11,12,12a-tetradecahydro-2H-1,4a-(methanooxymethano)chrysene-7-carboxylic acid] | 0.616
CC(=O)O[C@@H]1C[C@@]23COC[C@](C)([C@@H]2CC[C@H]2C3=CC(=O)[C@@]3(C)[C@H](C(=O)O)[C@@](C)([C@H](C)C(C)C)CC[C@]23C)[C@H]1OCCN [Example 47, (1S,2R,3R,4aR,6aS,7R,8R,10aR,10bR,12aR)-3-(acetyloxy)-2-(2-aminoethoxy)-8-[(1R)-1,2-dimethylpropyl]-1,6a,8,10a-tetramethyl-6-oxo-1,3,4,6,6a,7,8,9,10,10a,10b,11,12,12a-tetradecahydro-2H-1,4a-(methanooxymethano)chrysene-7-carboxylic acid] | 0.0783
CC(=O)O[C@@H]1C[C@@]23COC[C@](C)([C@@H]2CC[C@H]2C3=CC(=O)[C@@]3(C)[C@H](C(=O)O)[C@@](C)([C@H](C)C(C)C)CC[C@]23C)[C@H]1OCCNC(=N)N [Example 48, (1S,2R,3R,4aR,6aS,7R,8R,10aR,10bR,12aR)-3-(acetyloxy)-2-(2-guanidinoethoxy)-8-[(1R)-1,2-dimethylpropyl]-1,6a,8,10a-tetramethyl-6-oxo-1,3,4,6,6a,7,8,9,10,10a,10b,11,12,12a-tetradecahydro-2H-1,4a-(methanooxymethano)chrysene-7-carboxylic acid] | 0.0286

The next lines start with the values.

IC50 [µM] | Compound
0.0819 | CC(=O)O[C@@H]1C[C@@]23COC[C@](C)([C@@H]2CC[C@H]2C3=CC[C@@]3(C)[C@H](C(=O)O)[C@@](C)([C@H](C)C(C)C)CC[C@]23C)[C@H]1OCCN [Example 1, (1S,2R,3R,4aR,6aS,7R,8R,10aR,10bR,12aR)-3-(acetyloxy)-2-(2-aminoethoxy)-8-[(1R)-1,2-dimethylpropyl]-1,6a,8,10a-tetramethyl-1,3,4,6,6a,7,8,9,10,10a,10b,11,12,12a-tetradecahydro-2H-1,4a-(methanooxymethano)chrysene-7-carboxylic acid]
0.0391 | CC(=O)O[C@@H]1C[C@@]23COC[C@](C)(C2CC[C@H]2C3=CC[C@@]3(C)[C@H](C(=O)O)[C@@](C)([C@H](C)C(C)C)CC[C@]23C)[C@H]1OCC(C)N (stereo partly drawn) [Example 2, (1S,2R,3R,4aR,6aS,7R,8R,10aR,10bR,12aR)-3-(Acetyloxy)-2-(2-aminopropoxy)-8-[(1R)-1,2-dimethylpropyl]-1,6a,8,10a-tetramethyl-1,3,4,6,6a,7,8,9,10,10a,10b,11,12,12a-tetradecahydro-2H-1,4a-(methanooxymethano)chrysene-7-carboxylic acid]
0.0195 | CC(=O)O[C@@H]1C[C@@]23COC[C@](C)([C@@H]2CC[C@H]2C3=CC[C@@]3(C)[C@H](C(=O)O)[C@@](C)([C@H](C)C(C)C)CC[C@]23C)[C@H]1OCCNC(=N)N [Example 6, (1S,2R,3R,4aR,6aS,7R,8R,10aR,10bR,12aR)-3-(acetyloxy)-2-(2-guanidino-ethoxy)-8-[(1R)-1,2-dimethylpropyl]-1,6a,8,10a-tetramethyl-1,3,4,6,6a,7,8,9,10,10a,10b, 11,12,12a-tetradecahydro-2H-1,4a-(methanooxymethano)chrysene-7-carboxylic acid]
0.0476 | CC(=O)O[C@@H]1C[C@@]23COC[C@@](C)([C@@H]2CC[C@H]2C3=CC[C@@]3(C)[C@H](C(=O)O)[C@@](C)([C@H](C)C(C)C)CC[C@]23C)[C@H]1OCCCN [Example 35, (1S,2R,3R,4aR,6aS,7R,8R,10aR,10bR,12aR)-3-(acetyloxy)-2-(3-aminopropoxy)-8-[(1R)-1,2-dimethylpropyl]-1,6a,8,10a-tetramethyl-1,3,4,6,6a,7,8,9,10,10a,10b,11,12,12a-tetradecahydro-2H-1,4a-(methanooxymethano)chrysene-7-carboxylic acid]
